Measured values as given in the supplement of paper PMC10307832.

Compound: CC(C)C[C@@H](C(=O)N[C@H](C(=O)OC1CCCC1)c1ccccc1)[C@H](O)C(=O)NO [Tosedostat] + C[C@]1(O)C[C@@H](c2nc(-c3ccc4ccc(-c5ccccc5)nc4c3)c3c(N)nccn32)C1 [Linsitinib] (partner 1 µM)
Experiment: relative viability (nuclei count vs DMSO), 5 days (fraction); higher = more cells survive
Details: first compound 2 µM
Method in brief: (§1)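 Five library-drug doses in √10 steps were combined with a fixed anchor-drug dose, or a single drug was given alone, by pin tool to lung cancer cell lines in 1536-well plates the day after seeding. Nuclei were stained and counted after 5 days. Relative viability is the nuclei count in treated wells over that in vehicle wells, taken as the median of duplicate plates.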

Row | Cell Line | relative viability
1 | A549 | 0.608
2 | NCI-H441 | 0.403
3 | NCI-H1395 | 0.782
4 | NCI-H1299 | 0.839
5 | NCI-H1793 | 0.873

Compound: CC1=NN=C(O1)C2=NN=C(C=C2)N3CCC(CC3)OC4=C(C=CC(=C4)F)Cl + COc1cccc2cc(-c3nc([C@H]4CC[C@H](C(=O)O)CC4)n4ncnc(N)c34)[nH]c12 [OSI-027] (partner 0.5 µM)
Experiment: as above
Details: first compound 0.253 µM
Method in brief: as §1

Row | Cell Line | relative viability
6 | NCI-H522 | 0.725
7 | NCI-H1623 | 0.36
8 | SK-LU-1 | 0.3
9 | NCI-H1792 | 0.547
10 | NCI-H2087 | 0.641
11 | NCI-H596 | 0.565
12 | NCI-H1355 | 0.343
13 | SW 1573 | 0.643
14 | LCLC-103H | 0.372
15 | NCI-H727 | 0.704
16 | NCI-H2405 | 0.607
17 | EMC-BAC-2 | 0.441
18 | NCI-H23 | 0.49
19 | HCC-366 | 0.32
20 | NCI-H1755 | 0.609
21 | NCI-H838 | 0.37
22 | LK-2 | 0.265
23 | NCI-H2342 | 0.57
24 | SK-MES-1 | 0.558
25 | H3255 | 0.578
26 | ChaGo-K-1 | 0.506
27 | NCI-H2170 | 0.486
28 | NCI-H1648 | 0.256
29 | NCI-H441 | 0.579
30 | NCI-H1395 | 0.641
31 | NCI-H1793 | 0.253

Same assay, conditions: first compound 0.8 µM

Row | Cell Line | relative viability
32 | NCI-H522 | 0.659
33 | NCI-H1623 | 0.457
34 | NCI-H1792 | 0.587
35 | NCI-H2087 | 0.422
36 | NCI-H596 | 0.572
37 | NCI-H1355 | 0.38
38 | SW 1573 | 0.52
39 | LCLC-103H | 0.426
40 | NCI-H727 | 0.494
41 | NCI-H2405 | 0.549
42 | EMC-BAC-2 | 0.382
43 | HCC-366 | 0.399
44 | NCI-H1755 | 0.625
45 | NCI-H838 | 0.394
46 | LK-2 | 0.23
47 | NCI-H2347 | 0.366
48 | NCI-H2342 | 0.531
49 | SK-MES-1 | 0.583
50 | H3255 | 0.581
51 | ChaGo-K-1 | 0.422
52 | NCI-H2170 | 0.485
53 | NCI-H1648 | 0.253
54 | NCI-H441 | 0.347
55 | NCI-H1395 | 0.588
56 | NCI-H1793 | 0.2
57 | NCI-H1650 | 0.472

Same assay, conditions: first compound 2.53 µM

Row | Cell Line | relative viability
58 | NCI-H522 | 0.699
59 | NCI-H1623 | 0.392
60 | SK-LU-1 | 0.247
61 | NCI-H1792 | 0.686
62 | NCI-H2087 | 0.422
63 | NCI-H596 | 0.734
64 | NCI-H1355 | 0.386
65 | SW 1573 | 0.562
66 | LCLC-103H | 0.426
67 | NCI-H727 | 0.685
68 | NCI-H2405 | 0.634
69 | EMC-BAC-2 | 0.354
70 | NCI-H23 | 0.547
71 | HCC-366 | 0.393
72 | NCI-H1755 | 0.669
73 | NCI-H838 | 0.396
74 | LK-2 | 0.311
75 | NCI-H2347 | 0.463
76 | NCI-H2342 | 0.515
77 | SK-MES-1 | 0.601
78 | H3255 | 0.545
79 | ChaGo-K-1 | 0.597
80 | NCI-H2170 | 0.654
81 | SW 900 | 0.637
82 | NCI-H1648 | 0.279
83 | NCI-H441 | 0.603
84 | NCI-H1395 | 0.639
85 | NCI-H1793 | 0.296
86 | NCI-H1650 | 0.626

Same assay, conditions: first compound 8 µM

Row | Cell Line | relative viability
87 | NCI-H522 | 0.693
88 | NCI-H1623 | 0.429
89 | SK-LU-1 | 0.199
90 | NCI-H1792 | 0.731
91 | NCI-H2087 | 0.3
92 | NCI-H596 | 0.698
93 | NCI-H1355 | 0.331
94 | SW 1573 | 0.4
95 | LCLC-103H | 0.385
96 | NCI-H727 | 0.741
97 | NCI-H2405 | 0.616
98 | EMC-BAC-2 | 0.417
99 | NCI-H23 | 0.627
100 | HCC-366 | 0.407
101 | NCI-H1755 | 0.597
102 | NCI-H838 | 0.331
103 | LK-2 | 0.234
104 | NCI-H2347 | 0.354
105 | NCI-H2342 | 0.522
106 | SK-MES-1 | 0.487
107 | H3255 | 0.511
108 | ChaGo-K-1 | 0.398
109 | NCI-H2170 | 0.489
110 | SW 900 | 0.41
111 | NCI-H1648 | 0.271
112 | NCI-H441 | 0.52
113 | NCI-H1395 | 0.595
114 | NCI-H1793 | 0.276
115 | NCI-H1650 | 0.615

Compound: CC(C)C[C@@H](C(=O)N[C@H](C(=O)OC1CCCC1)c1ccccc1)[C@H](O)C(=O)NO [Tosedostat] + C[C@@H](Oc1cc(-c2cnn(C3CCNCC3)c2)cnc1N)c1c(Cl)ccc(F)c1Cl [Crizotinib] (partner 1 µM)
Experiment: as above
Details: first compound 0.02 µM
Method in brief: as §1

Row | Cell Line | relative viability
116 | SK-LU-1 | 0.898
117 | NCI-H1703 | 1.15
118 | EBC-1 | 0.197
119 | NCI-H1792 | 1
120 | NCI-H2087 | 0.832
121 | NCI-H596 | 0.968
122 | NCI-H1355 | 0.997
123 | SW 1573 | 0.711
124 | LCLC-103H | 1.09
125 | NCI-H727 | 0.983
126 | NCI-H2405 | 0.873
127 | EMC-BAC-2 | 0.847
128 | NCI-H23 | 0.504
129 | Calu-6 | 0.924
130 | HCC-366 | 0.681
